# Reference: patent publication US9265189B2, “Method for reducing damage by harmful organisms in corn cultivation” (SUMITOMO CHEMICAL COMPANY, LIMITED, priority 2012, dated 2016)
# Test system: Diabrotica virgifera virgifera and Agriotes lineatus
# Experiment: Field test, corn lodged due to damage by Diabrotica virgifera virgifera and Agriotes lineatus (Example 5)
# Assay type: in vivo
# Settings: Example section 5: clothianidin 80 g/ha, in-furrow spray of Dantop 50WG 125 L/ha, corn DKC 5143 seed treated with Maxim XL, MaisTer pre-treatment, 155 days after application; non-treatment section 36
# Text: A chemical fertilizer (N:P:K=15:15:15) was applied to the soil surface of a cultivated land at 300 kg/ha, and the cultivated land was then plowed. In order to prevent generation of weeds, 28 days after fertilization, the whole cultivated land was spraying-treated with a mixed agent (using 610 g/kg water dispersible granule, trade name: […], manufactured by Bayer CropScience) of foramsulfuron and an iodosulfuron-methyl-sodium salt, each of which being a herbicide, and a safener, isoxadifen-ethyl, at 0.15 L/ha in terms of an application amount of the preparation. 3 days after application of the preparation, using a pneumatic seeder (disk furrow opener) equipped with a power sprayer, a cultivated land was ditched at intervals of 75 cm to a depth of 5 cm from the soil surface, and the furrow was seeded with corn (variety name: DKC 5143; hybrid variety, manufactured by Monsanto). […] 155 days after application of the clothianidin water dispersible granule, the number of plants of corn lodged due to damage by Diabrotica virgifera virgifera and Agriotes lineatus in the furrows of the example section 5 and the non-treatment section, for which the number of plants of corn germinated was investigated, was investigated, a lodge rate was calculated in accordance with the following equation, and then an average lodge rate for the four investigation sections was determined. […]
smiles,measurement,value
CN/C(=N\[N+](=O)[O-])NCc1cnc(Cl)s1 [clothianidin],Lodge rate (%),0%
